US20110268794A1, “METHODS AND MATERIALS FOR DELIVERING BILE ACIDS” (priority 2009, published 2011)

Assays:
Assay type in all cases: in vivo, human
healthy volunteers [1] = assay: Scintigraphic gastrointestinal and colonic transit, healthy volunteers (Example 1); settings: for AC t1/2 (ascending colon emptying) / CF 6 (colonic filling at 6 hours) / GC 4 (colonic geometric center at 4 h) / GC 6 (colonic geometric center at 6 h) / GC 8 (colonic geometric center at 8 h) / GC 48 (colonic geometric center at 48 h) / GC 24 (colonic geometric center at 24 h) / GE t1/2 (gastric emptying): N = 20, mean ± SEM; for GC 48 (colonic geometric center at 48 h): overall p < 0.0001; for GC 24 (colonic geometric center at 24 h): overall p = 0.01; for GE t1/2 (gastric emptying): methacrylate-coated capsule
Protocol: This was a double-blind, placebo-controlled, randomized study evaluating the effects of sodium chenodeoxycholate (CDC) or placebo orally administered once daily for four days in healthy volunteers.
Randomization was 1:1:1 for placebo, chenodeoxycholate 500 mg, and chenodeoxycholate 1000 mg. Sodium chenodeoxycholate was purchased from Calbiochem, EMD Chemicals Inc., and Mayo pharmacy prepared identical placebo and chenodeoxycholate capsules, all of which were coated with the pH sensitive polymer, methacrylate. The latter dissolves at the neutral pH found in the distal ileum and was used to ensure ileocolonic delivery of the chenodeoxycholate.
Three groups (n=20 each) were randomized to oral placebo, 500 mg or 1000 mg CDC daily (in pH-sensitive, methacrylate-coated capsules), each for a period of 4 days.
Gastrointestinal (GI) and colonic transit was conducted by a scintigraphic method (Burton et al., J. Nucl. Med., 38:1807-10 (1997); Cremonini et al., Aliment Pharmacol. Ther., 16:1781-90 (2002); and Camilleri and Zinsmeister, Gastroenterology, 103:36-42 (1992)) during the last 48 hours of drug ingestion (FIG. 1).
An adaptation of an established scintigraphic method was used to measure GI and colonic transit (Burton et al., J. Nucl. Med., 38:1807-10 (1997); Cremonini et al., Aliment Pharmacol. Ther., 16:1781-90 (2002); and Camilleri and Zinsmeister, Gastroenterology, 103:36-42 (1992)). ^111In was adsorbed on to activated charcoal particles and delivered to the colon by means of a methacrylate-coated, delayed-release oral capsule. The capsule was ingested following an overnight fast. After the capsule emptied from the stomach, a ^99mTc-sulfur colloid radiolabeled meal was ingested. It consisted of two scrambled eggs, one slice of whole wheat bread, and one glass of whole milk. This meal facilitates measurement of gastric and small bowel transit. Subjects ingested standardized meals for lunch and dinner at 4 and 8 hours after the radiolabeled meal, respectively. Abdominal scans were obtained every hour for the first 6 hours (the first 4 hours for the assessment of gastric emptying) and at 8, 24, and 48 hours after ingestion of the ^111In capsule. The performance characteristics of this test are summarized elsewhere (Cremonini et al., Aliment Pharmacol. Ther., 16:1781-90 (2002)).
The counts in the stomach and each of four colonic regions: ascending, transverse, descending, and combined sigmoid and rectum were quantitated with a variable region of interest program. Counts were corrected for isotope decay, tissue attenuation, and downscatter of ^111In counts in the ^99mTc window (Burton et al., J. Nucl. Med., 38:1807-10 (1997) and Cremonini et al., Aliment Pharmacol. Ther., 16:1781-90 (2002)).
Gastric emptying t1/2 is a measure of the time for 50% of the radiolabeled meal (identifiable by radiolabeled tracer) to empty from the stomach. Colonic filling at 6 hours, or the proportion of the radiolabeled meal to have reached the colon at 6 hours is an indirect measurement of small bowel transit time. Overall colonic transit was summarized as the colonic geometric center (GC) at specified times. The GC is the weighted average of counts in the different colonic regions [ascending (AC), transverse (TC), descending (DC), rectosigmoid (RS)] and stool, respectively 1 to 5. Thus, at any time, the proportion of counts in each colonic region is multiplied by its weighting factor as follows:
(% AC×1+% TC×2+% DC×3+% RS×4+% stool×5)/100=GC
Thus, a higher GC reflects a faster colonic transit. Ascending colon emptying was summarized by the t1/2 calculated by linear interpolation of values on the AC emptying curve.
The primary endpoints were the colonic GC at 24 hours (GC 24) and AC emptying t1/2.

healthy volunteers [2] = assay: Daily stool diaries (bowel function), healthy volunteers (Example 1); settings: for Ease of passage (scale 1-7) / Stool frequency per day / Stool consistency by Bristol Stool Form Scale: N = 20, mean ± SEM; for Stool frequency per day: overall p < 0.001; for Stool consistency by Bristol Stool Form Scale: scale 1 hard lumps to 7 watery
Protocol: This was a double-blind, placebo-controlled, randomized study evaluating the effects of sodium chenodeoxycholate (CDC) or placebo orally administered once daily for four days in healthy volunteers. Three groups (n=20 each) were randomized to oral placebo, 500 mg or 1000 mg CDC daily (in pH-sensitive, methacrylate-coated capsules), each for a period of 4 days. During at least 3 days of the baseline period and the 4 days of treatment period, each patient noted each bowel movement with the exact time and with the description of stool consistency according to the BSFS (ranging from 1=“hard lumps” to 7=“watery”), and the ease of passage (ranging from 1=“manual disimpaction” to 7=“incontinence”), and answered whether or not they felt they had completely emptied their bowels (1=“yes” and 0=“no”) (Bouras et al., Gastroenterology, 120:354-60 (2001)). The diaries contained values for stool consistency, stool frequency, ease of passage and sense of completely emptying their bowels.

healthy volunteers [3] = assay: Adverse events, healthy volunteers (Example 1); settings: for Percent of participants dizzy, light-headed / Percent of participants with URI / Percent of participants with diarrhea / Percent of participants with gas / Percent of participants with headache / Percent of participants with loose stools / Percent of participants with lower abdo bloating / Percent of participants with lower abdo pain/cramps / Percent of participants with muscle aches / Percent of participants with nausea / Percent of participants with sensation of warmth / Percent of participants with sweating: n=20
Protocol: This was a double-blind, placebo-controlled, randomized study evaluating the effects of sodium chenodeoxycholate (CDC) or placebo orally administered once daily for four days in healthy volunteers. An independent statistician generated the randomization code. Clinical and laboratory study personnel were blinded throughout the study until data were locked and analyzed. Safety monitoring was conducted throughout the study. Three groups (n=20 each) were randomized to oral placebo, 500 mg or 1000 mg CDC daily (in pH-sensitive, methacrylate-coated capsules), each for a period of 4 days.

female IBS-C patients [4] = assay: Scintigraphic gastrointestinal and colonic transit, female IBS-C patients (Example 2)
Protocol: (§1) The following study was performed to evaluate the effects of ileocolonic delivery of sodium chenodeoxycholate (CDC) on gastrointestinal (GI) and colonic transit and bowel function in constipation-predominant irritable bowel syndrome (IBS-C). A double-blind, placebo-controlled study evaluated effects of once-daily CDC for 4 days in 36 female IBS-C patients (mean age 41.80±1.62 y). Patients were randomized to oral placebo, 500 mg or 1000 mg CDC delivered to the ileocolonic region in pH-sensitive, methacrylate-coated capsules. Fasting serum 7α-hydroxy-4-cholesten-3-one (7αC4) was measured to assess for baseline abnormalities in bile acid synthesis. […] Treatment effects were compared by ANCOVA with BMI as a covariate, and each CDC dose against placebo by Dunnett's test.

female IBS-C patients [5] = assay: Bowel function by daily questionnaires, female IBS-C patients (Example 2)
Protocol: as §1

female IBS-C patients [6] = assay: Side effects, female IBS-C patients (Example 2)
Protocol: as §1

[7] = 500 mg or 1000 mg once daily 4 days vs placebo, healthy volunteers
[8] = 500 mg or 1000 mg once daily 4 days vs placebo
[9] = CDC 500 mg once daily 4 days, N = 11, mean ± SEM
[10] = CDC 1000 mg once daily 4 days, N = 12, mean ± SEM

C[C@H](CCC(=O)O)[C@H]1CC[C@H]2[C@@H]3[C@H](O)C[C@@H]4C[C@H](O)CC[C@]4(C)[C@H]3CC[C@]12C [CDC, sodium chenodeoxycholate]
Treatment effect on colonic filling (healthy volunteers [1]; [7]): not detected
Treatment effect on gastric emptying (healthy volunteers [1]; [7]): not detected
AC t1/2 (ascending colon emptying) (healthy volunteers [1]; CDC 500 mg once daily 4 days): 12.1 ± 2.1 h
CF 6 (colonic filling at 6 hours) (healthy volunteers [1]; CDC 500 mg once daily 4 days): 49.6 ± 7.0%
GC 4 (colonic geometric center at 4 h) (healthy volunteers [1]; CDC 500 mg once daily 4 days): 0.87 ± 0.18
GC 6 (colonic geometric center at 6 h) (healthy volunteers [1]; CDC 500 mg once daily 4 days): 1.53 ± 0.28
GC 8 (colonic geometric center at 8 h) (healthy volunteers [1]; CDC 500 mg once daily 4 days): 1.83 ± 0.27
GC 48 (colonic geometric center at 48 h) (healthy volunteers [1]; CDC 500 mg once daily 4 days): 4.10 ± 0.21
GC 24 (colonic geometric center at 24 h) (healthy volunteers [1]; CDC 500 mg once daily 4 days): 2.80 ± 0.27
GE t1/2 (gastric emptying) (healthy volunteers [1]; CDC 500 mg oral once daily 4 days): 2.115 ± 0.0883 h
AC t1/2 (ascending colon emptying) (healthy volunteers [1]; CDC 1000 mg once daily 4 days): 10.7 ± 1.9 h
CF 6 (colonic filling at 6 hours) (healthy volunteers [1]; CDC 1000 mg once daily 4 days): 46.0 ± 7.1%
GC 4 (colonic geometric center at 4 h) (healthy volunteers [1]; CDC 1000 mg once daily 4 days): 1.27 ± 0.33
GC 6 (colonic geometric center at 6 h) (healthy volunteers [1]; CDC 1000 mg once daily 4 days): 2.20 ± 0.43
GC 8 (colonic geometric center at 8 h) (healthy volunteers [1]; CDC 1000 mg once daily 4 days): 2.52 ± 0.39
GC 48 (colonic geometric center at 48 h) (healthy volunteers [1]; CDC 1000 mg once daily 4 days): 4.92 ± 0.05
GC 24 (colonic geometric center at 24 h) (healthy volunteers [1]; CDC 1000 mg once daily 4 days): 3.76 ± 0.30
GE t1/2 (gastric emptying) (healthy volunteers [1]; CDC 1000 mg oral once daily 4 days): 2.383 ± 0.235 h
Overall treatment effect on sense of incomplete evacuation (healthy volunteers [2]; 500 mg or 1000 mg once daily 4 days vs placebo, healthy volunteers, p=0.02): significant overall treatment effects
Ease of passage (scale 1-7) (healthy volunteers [2]; CDC 500 mg once daily 4 days): 4.1 ± 0.06
Stool frequency per day (healthy volunteers [2]; CDC 500 mg once daily 4 days): 1.50 ± 0.18 per day
Stool consistency by Bristol Stool Form Scale (healthy volunteers [2]; CDC 500 mg once daily 4 days): 4.29 ± 0.19
Ease of passage (scale 1-7) (healthy volunteers [2]; CDC 1000 mg once daily 4 days): 4.3 ± 0.06
Stool frequency per day (healthy volunteers [2]; CDC 1000 mg once daily 4 days): 2.01 ± 0.15 per day
Stool consistency by Bristol Stool Form Scale (healthy volunteers [2]; CDC 1000 mg once daily 4 days): 4.80 ± 0.15
Serious adverse events (healthy volunteers [3]; 500 mg or 1000 mg once daily 4 days, healthy volunteers): no serious adverse events
Percent of participants dizzy, light-headed (healthy volunteers [3]; CDC 500 mg once daily 4 days): 10%
Percent of participants with URI (healthy volunteers [3]; CDC 500 mg once daily 4 days): 0%
Percent of participants with diarrhea (healthy volunteers [3]; CDC 500 mg once daily 4 days): 40%
Percent of participants with gas (healthy volunteers [3]; CDC 500 mg once daily 4 days): 5%
Percent of participants with headache (healthy volunteers [3]; CDC 500 mg once daily 4 days): 25%
Percent of participants with loose stools (healthy volunteers [3]; CDC 500 mg once daily 4 days): 15%
Percent of participants with lower abdo bloating (healthy volunteers [3]; CDC 500 mg once daily 4 days): 5%
Percent of participants with lower abdo pain/cramps (healthy volunteers [3]; CDC 500 mg once daily 4 days): 15%
Percent of participants with muscle aches (healthy volunteers [3]; CDC 500 mg once daily 4 days): 5%
Percent of participants with nausea (healthy volunteers [3]; CDC 500 mg once daily 4 days): 5%
Percent of participants with sensation of warmth (healthy volunteers [3]; CDC 500 mg once daily 4 days): 5%
Percent of participants with sweating (healthy volunteers [3]; CDC 500 mg once daily 4 days): 5%
Percent of participants dizzy, light-headed (healthy volunteers [3]; CDC 1000 mg once daily 4 days): 5%
Percent of participants with URI (healthy volunteers [3]; CDC 1000 mg once daily 4 days): 10%
Percent of participants with diarrhea (healthy volunteers [3]; CDC 1000 mg once daily 4 days): 75%
Percent of participants with gas (healthy volunteers [3]; CDC 1000 mg once daily 4 days): 5%
Percent of participants with headache (healthy volunteers [3]; CDC 1000 mg once daily 4 days): 25%
Percent of participants with loose stools (healthy volunteers [3]; CDC 1000 mg once daily 4 days): 20%
Percent of participants with lower abdo bloating (healthy volunteers [3]; CDC 1000 mg once daily 4 days): 0%
Percent of participants with lower abdo pain/cramps (healthy volunteers [3]; CDC 1000 mg once daily 4 days): 75%
Percent of participants with muscle aches (healthy volunteers [3]; CDC 1000 mg once daily 4 days): 0%
Percent of participants with nausea (healthy volunteers [3]; CDC 1000 mg once daily 4 days): 20%
Percent of participants with sensation of warmth (healthy volunteers [3]; CDC 1000 mg once daily 4 days): 5%
Percent of participants with sweating (healthy volunteers [3]; CDC 1000 mg once daily 4 days): 5%
Effect on colonic filling at 6 hours (female IBS-C patients [4]; [8]): not affected
Effect on gastric emptying t1/2 (female IBS-C patients [4]; [8]): not affected
AC t1/2 (ascending colon emptying) (female IBS-C patients [4]; [9]): 9.55 ± 2.90 h
CF 6 (colonic filling at 6 hours) (female IBS-C patients [4]; [9]): 52.64 ± 6.67%
GC 24 (colonic geometric center at 24 hours) (female IBS-C patients [4]; [9]): 3.12 ± 0.43
AC t1/2 (ascending colon emptying) (female IBS-C patients [4]; [10]): 8.19 ± 1.78 h
CF 6 (colonic filling at 6 hours) (female IBS-C patients [4]; [10]): 54.75 ± 7.05%
GC 24 (colonic geometric center at 24 hours) (female IBS-C patients [4]; [10]): 3.49 ± 0.36
Stool consistency (Bristol Scale) (female IBS-C patients [5]; [9]): 3.58 ± 0.33
Stool frequency per day (female IBS-C patients [5]; [9]): 1.22 ± 0.19 per day
Stool consistency (Bristol Scale) (female IBS-C patients [5]; [10]): 3.47 ± 0.23
Stool frequency per day (female IBS-C patients [5]; [10]): 1.27 ± 0.13 per day
Safety issues (female IBS-C patients [6]; 500 mg or 1000 mg once daily 4 days): No safety issues were identified
Patients with diarrhea (female IBS-C patients [6]; CDC 500 mg once daily 4 days): 18%
Patients with lower abdominal cramps/pain (female IBS-C patients [6]; CDC 500 mg once daily 4 days): 45%
Patients with diarrhea (female IBS-C patients [6]; CDC 1000 mg once daily 4 days): 17%
Patients with lower abdominal cramps/pain (female IBS-C patients [6]; CDC 1000 mg once daily 4 days): 42%
